Assay in all cases: EC50 assay: Ba/F3 stable cell proliferation (CCK-8, 72 h)
Holding throughout (type): cell-based

The target of test [1] is T1, Ba/F3 stable cells (Homo sapiens, UniProt P00533, DUP767-769, cells depend on it).
T1 construct: EC50 Ba/F3-EGFR V769-D770insASV; other: Ba/F3-EGFR V769-D770insASV cells, 72 h, CCK-8
As to conditions: Ba/F3-EGFR V769-D770insASV cells. How it is done: (§1) 4,000 Ba/F3 stable cells/90 μL/well were plated onto 96-well cell culture plate (Grenier, Cat.No. 655180) and incubated at 37° C. with a humidified atmosphere of 5% CO2 for 2 h. Then the cells were treated with 10 μL compounds at serial titration. The final DMSO concentration is 0.1%. The cells treated with 0.1% DMSO (Vetec, Cat.No.V900090) as a positive control (Max), and medium with 0.1% DMSO was as a negative control (Min). Incubated the cells at 37° C. for 72 h. 10 μL the cell proliferation reagent CCK-8 (Dojindo, Cat.No. CK04 1000T) was added into each well and incubated the plate at 37° C. for 4 hours, the GD value was measured by SPECTRAmax plus (Molecular Devices) at 450 nm. Data processing with Graphpad 7.0.

Test [2] deals with T2, Ba/F3 stable cells (Homo sapiens, UniProt P00533, DUP768-770, cells depend on it).
T2 construct: EC50 Ba/F3-EGFR D770-N771insSVD; other: Ba/F3-EGFR D770-N771insSVD cells, 72 h, CCK-8
The settings on record: Ba/F3-EGFR D770-N771insSVD cells. Here is the method: as §1

Test [3] has as its target T3, Ba/F3 stable cells (Homo sapiens, UniProt P00533, DUP771-773, cells depend on it).
T3 construct: EC50 Ba/F3-EGFR H773-V774insNPH; other: Ba/F3-EGFR H773-V774insNPH cells, 72 h, CCK-8
The settings on record: Ba/F3-EGFR H773-V774insNPH cells. How it is done: as §1

For test [4], the target named is T4, Ba/F3 stable cells (Homo sapiens, UniProt P00533, INS763FQEA, cells depend on it).
T4 construct: EC50 Ba/F3-EGFR A763-Y764insFQEA; other: Ba/F3-EGFR A763-Y764insFQEA cells, 72 h, CCK-8
T4 sequence (P00533 with tags, fused parts or gaps INS763FQEA): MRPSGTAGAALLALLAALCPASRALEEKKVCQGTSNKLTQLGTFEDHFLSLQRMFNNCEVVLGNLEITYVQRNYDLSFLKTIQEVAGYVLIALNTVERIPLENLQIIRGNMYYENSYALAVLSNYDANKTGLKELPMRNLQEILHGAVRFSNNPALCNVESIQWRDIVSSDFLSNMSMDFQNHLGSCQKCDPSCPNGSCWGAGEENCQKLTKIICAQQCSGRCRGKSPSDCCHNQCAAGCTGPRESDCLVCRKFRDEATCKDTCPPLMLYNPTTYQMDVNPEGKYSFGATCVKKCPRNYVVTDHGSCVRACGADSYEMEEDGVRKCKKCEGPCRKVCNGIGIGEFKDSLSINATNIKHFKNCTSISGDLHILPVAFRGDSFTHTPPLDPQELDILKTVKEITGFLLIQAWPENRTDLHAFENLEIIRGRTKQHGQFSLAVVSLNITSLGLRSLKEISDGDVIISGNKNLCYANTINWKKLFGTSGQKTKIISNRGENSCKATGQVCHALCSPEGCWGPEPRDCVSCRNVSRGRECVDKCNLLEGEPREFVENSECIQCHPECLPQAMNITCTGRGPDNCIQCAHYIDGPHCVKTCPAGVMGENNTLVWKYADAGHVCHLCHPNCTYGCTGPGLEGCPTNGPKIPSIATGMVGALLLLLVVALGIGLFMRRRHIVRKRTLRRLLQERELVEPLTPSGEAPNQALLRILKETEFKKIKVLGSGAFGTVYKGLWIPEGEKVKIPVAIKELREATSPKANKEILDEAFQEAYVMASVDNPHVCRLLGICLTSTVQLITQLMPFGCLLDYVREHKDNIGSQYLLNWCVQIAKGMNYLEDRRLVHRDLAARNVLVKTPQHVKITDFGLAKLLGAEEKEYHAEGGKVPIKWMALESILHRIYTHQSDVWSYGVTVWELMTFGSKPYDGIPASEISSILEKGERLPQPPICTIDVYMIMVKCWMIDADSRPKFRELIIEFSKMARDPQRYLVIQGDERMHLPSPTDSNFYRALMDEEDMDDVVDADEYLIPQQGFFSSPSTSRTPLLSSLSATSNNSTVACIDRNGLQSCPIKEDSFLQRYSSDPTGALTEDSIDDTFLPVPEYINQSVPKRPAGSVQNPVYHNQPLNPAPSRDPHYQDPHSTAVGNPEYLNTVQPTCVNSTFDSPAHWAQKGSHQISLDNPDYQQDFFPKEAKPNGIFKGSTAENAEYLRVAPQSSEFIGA
The settings on record: Ba/F3-EGFR A763-Y764insFQEA cells. How it is done: as §1

Test [5] deals with T5, Ba/F3 stable cells (Homo sapiens, UniProt P00533, T790M/L858R, cells depend on it).
T5 construct: EC50 Ba/F3-EGFR L858R-T790M; other: Ba/F3-EGFR L858R-T790M cells, 72 h, CCK-8
The settings on record: Ba/F3-EGFR L858R-T790M cells. How it is done: as §1

Test [6] deals with T6, Ba/F3 stable cells (Homo sapiens, UniProt P04626, DUP772-775, cells depend on it).
T6 construct: EC50 Ba/F3-HER2 A775-G776insYVMA; other: Ba/F3-HER2 A775-G776insYVMA cells, 72 h, CCK-8
T6 sequence (P04626 with tags, fused parts or gaps DUP772-775): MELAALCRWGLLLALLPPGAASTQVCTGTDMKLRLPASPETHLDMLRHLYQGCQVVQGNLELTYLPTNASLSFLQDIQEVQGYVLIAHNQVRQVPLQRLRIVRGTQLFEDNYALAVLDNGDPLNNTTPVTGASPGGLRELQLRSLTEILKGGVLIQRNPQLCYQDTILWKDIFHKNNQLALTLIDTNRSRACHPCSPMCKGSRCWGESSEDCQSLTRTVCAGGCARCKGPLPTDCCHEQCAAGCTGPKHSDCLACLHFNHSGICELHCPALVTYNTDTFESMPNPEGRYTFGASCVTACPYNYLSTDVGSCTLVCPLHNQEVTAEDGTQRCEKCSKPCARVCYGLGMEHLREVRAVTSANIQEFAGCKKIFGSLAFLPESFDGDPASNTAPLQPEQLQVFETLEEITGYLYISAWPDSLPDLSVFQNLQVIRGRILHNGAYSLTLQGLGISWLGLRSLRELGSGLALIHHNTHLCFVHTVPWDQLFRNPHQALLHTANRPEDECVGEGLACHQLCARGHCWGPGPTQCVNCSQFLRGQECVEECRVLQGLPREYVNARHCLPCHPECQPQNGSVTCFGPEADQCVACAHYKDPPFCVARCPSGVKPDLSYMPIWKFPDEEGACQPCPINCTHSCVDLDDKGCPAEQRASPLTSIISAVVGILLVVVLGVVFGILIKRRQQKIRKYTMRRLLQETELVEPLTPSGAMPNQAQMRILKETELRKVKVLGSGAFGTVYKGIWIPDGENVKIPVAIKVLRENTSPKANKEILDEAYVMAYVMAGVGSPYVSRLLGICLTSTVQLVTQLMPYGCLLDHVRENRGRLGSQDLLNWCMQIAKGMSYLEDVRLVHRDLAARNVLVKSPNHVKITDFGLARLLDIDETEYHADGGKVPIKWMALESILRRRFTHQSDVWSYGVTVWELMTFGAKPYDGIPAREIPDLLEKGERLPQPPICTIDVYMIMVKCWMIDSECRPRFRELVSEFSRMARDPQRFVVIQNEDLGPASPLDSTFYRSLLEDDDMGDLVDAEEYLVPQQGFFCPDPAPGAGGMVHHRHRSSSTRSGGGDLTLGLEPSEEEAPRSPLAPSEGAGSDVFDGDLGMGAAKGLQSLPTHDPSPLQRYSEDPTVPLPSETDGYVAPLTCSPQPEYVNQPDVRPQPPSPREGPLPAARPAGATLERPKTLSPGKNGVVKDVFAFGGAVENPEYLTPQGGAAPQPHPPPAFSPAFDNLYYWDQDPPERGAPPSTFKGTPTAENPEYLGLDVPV
The settings on record: Ba/F3-HER2 A775-G776insYVMA cells. Here is the method: as §1

Consider 15 compounds from US20250243171A1, “QUINAZOLINE COMPOUNDS FOR TREATMENT OF DISEASE” (Arthrosi Therapeutics, Inc., priority 2021, published 2025).

T1 sequence (P00533 with tags, fused parts or gaps DUP767-769): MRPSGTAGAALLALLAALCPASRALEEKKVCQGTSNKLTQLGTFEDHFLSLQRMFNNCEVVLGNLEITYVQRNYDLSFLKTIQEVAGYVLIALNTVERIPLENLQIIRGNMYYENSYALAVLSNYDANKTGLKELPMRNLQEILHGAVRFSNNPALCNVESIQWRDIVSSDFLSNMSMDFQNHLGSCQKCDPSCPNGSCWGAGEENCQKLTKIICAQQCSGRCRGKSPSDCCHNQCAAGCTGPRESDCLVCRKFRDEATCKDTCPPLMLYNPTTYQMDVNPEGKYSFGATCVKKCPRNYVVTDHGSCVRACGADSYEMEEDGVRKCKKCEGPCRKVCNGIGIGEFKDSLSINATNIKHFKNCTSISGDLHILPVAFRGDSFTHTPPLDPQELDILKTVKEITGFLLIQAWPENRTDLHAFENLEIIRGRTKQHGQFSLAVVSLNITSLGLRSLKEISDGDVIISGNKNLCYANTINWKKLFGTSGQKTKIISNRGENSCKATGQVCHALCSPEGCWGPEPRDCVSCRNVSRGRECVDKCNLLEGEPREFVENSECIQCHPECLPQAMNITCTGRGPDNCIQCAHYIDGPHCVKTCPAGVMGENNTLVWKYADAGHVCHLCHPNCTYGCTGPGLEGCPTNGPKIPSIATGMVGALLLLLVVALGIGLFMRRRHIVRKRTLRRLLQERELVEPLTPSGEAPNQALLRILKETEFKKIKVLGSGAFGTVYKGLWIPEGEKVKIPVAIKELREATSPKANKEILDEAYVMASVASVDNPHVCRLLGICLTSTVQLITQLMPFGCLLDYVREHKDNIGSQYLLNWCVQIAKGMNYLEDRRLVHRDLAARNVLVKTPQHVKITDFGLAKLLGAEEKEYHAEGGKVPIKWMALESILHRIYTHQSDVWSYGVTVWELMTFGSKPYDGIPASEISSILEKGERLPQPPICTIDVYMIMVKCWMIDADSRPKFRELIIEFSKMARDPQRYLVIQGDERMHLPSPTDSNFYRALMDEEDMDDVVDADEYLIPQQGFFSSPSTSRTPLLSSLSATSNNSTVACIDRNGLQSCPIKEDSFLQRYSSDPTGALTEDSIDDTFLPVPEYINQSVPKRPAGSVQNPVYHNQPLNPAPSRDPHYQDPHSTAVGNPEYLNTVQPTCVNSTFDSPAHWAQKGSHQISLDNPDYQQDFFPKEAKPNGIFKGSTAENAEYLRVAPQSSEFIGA
T3 sequence (P00533 with tags, fused parts or gaps DUP771-773): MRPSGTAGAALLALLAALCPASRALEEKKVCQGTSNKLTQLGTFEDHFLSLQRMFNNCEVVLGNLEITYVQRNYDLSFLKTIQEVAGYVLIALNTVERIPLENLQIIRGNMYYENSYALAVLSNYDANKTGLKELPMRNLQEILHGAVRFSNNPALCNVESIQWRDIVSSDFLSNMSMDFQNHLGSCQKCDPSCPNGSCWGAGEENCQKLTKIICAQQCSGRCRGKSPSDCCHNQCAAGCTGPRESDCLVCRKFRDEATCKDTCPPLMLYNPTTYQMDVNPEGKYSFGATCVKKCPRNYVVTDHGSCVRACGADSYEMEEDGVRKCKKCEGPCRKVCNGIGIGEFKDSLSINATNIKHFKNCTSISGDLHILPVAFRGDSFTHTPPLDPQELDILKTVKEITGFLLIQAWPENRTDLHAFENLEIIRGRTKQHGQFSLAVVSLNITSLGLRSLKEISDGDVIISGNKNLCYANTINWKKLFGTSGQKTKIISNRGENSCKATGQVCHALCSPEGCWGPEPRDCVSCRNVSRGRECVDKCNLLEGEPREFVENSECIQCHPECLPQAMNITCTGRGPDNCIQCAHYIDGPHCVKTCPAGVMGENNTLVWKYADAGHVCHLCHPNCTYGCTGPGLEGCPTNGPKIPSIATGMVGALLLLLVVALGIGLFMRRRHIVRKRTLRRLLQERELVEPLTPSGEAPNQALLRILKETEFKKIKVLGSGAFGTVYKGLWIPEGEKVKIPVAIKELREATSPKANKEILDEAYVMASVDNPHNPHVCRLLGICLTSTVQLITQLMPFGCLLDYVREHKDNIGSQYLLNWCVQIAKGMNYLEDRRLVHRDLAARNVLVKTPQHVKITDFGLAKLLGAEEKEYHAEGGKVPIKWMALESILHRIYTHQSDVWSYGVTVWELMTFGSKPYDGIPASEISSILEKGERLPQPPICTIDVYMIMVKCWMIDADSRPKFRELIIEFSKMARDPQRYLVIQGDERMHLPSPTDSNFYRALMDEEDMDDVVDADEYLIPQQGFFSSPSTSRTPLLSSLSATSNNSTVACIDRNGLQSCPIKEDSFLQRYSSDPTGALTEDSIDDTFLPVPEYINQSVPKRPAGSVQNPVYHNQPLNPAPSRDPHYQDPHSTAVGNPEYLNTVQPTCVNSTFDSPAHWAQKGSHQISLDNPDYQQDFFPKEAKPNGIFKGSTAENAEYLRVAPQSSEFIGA

Consider `C=CC(=O)N1CC(c2cc3c(Nc4ccc(Cl)c(Cl)c4F)ncnc3cc2OCCOC)C1` [Compound 17, 1-(3-(4-((3,4-dichloro-2-fluorophenyl)amino)-7-(2-methoxyethoxy)quinazolin-6-yl)azetidin-1-yl)prop-2-en-1-one], for which the 50% effective concentration (EC50) at Ba/F3 stable cells [1], at Ba/F3 stable cells [2], at Ba/F3 stable cells [3], at Ba/F3 stable cells [4], on Ba/F3 stable cells [5] and at Ba/F3 stable cells [6] was ≤ 200 nM throughout.
Take `C=CC(=O)N1CC(c2cc3c(Nc4ccc(Cl)c(Cl)c4F)ncnc3cc2OCC)C1` [Compound 18, 1-(3-(4-((3,4-dichloro-2-fluorophenyl)amino)-7-ethoxyquinazolin-6-yl)azetidin-1-yl)prop-2-en-1-one]: the EC50 on Ba/F3 stable cells [1], at Ba/F3 stable cells [2], on Ba/F3 stable cells [3], at Ba/F3 stable cells [4], at Ba/F3 stable cells [5] and at Ba/F3 stable cells [6] was ≤ 200 nM in each case.
Regarding `C=CC(=O)N1CC(c2cc3c(Nc4ccc(Cl)c(Cl)c4F)ncnc3cc2OCCO)C1` [Compound 19, 1-(3-(4-((3,4-dichloro-2-fluorophenyl)amino)-7-(2-hydroxyethoxy)quinazolin-6-yl)azetidin-1-yl)prop-2-en-1-one], the concentration giving a half-maximal response (EC50) at Ba/F3 stable cells [1], at Ba/F3 stable cells [2], on Ba/F3 stable cells [3], at Ba/F3 stable cells [4], at Ba/F3 stable cells [5] and at Ba/F3 stable cells [6] was ≤ 200 nM throughout.
As for `C=CC(=O)N1CC(c2cc3c(Nc4ccc(Cl)c(Cl)c4F)ncnc3cc2OCCN2CCN(C)CC2)C1` [Compound 21, 1-(3-(4-((3,4-dichloro-2-fluorophenyl)amino)-7-(2-(4-methylpiperazin-1-yl)ethoxy)quinazolin-6-yl)azetidin-1-yl)prop-2-en-1-one], the half-maximal effective concentration (EC50) at Ba/F3 stable cells [1], on Ba/F3 stable cells [2], at Ba/F3 stable cells [3], on Ba/F3 stable cells [4], on Ba/F3 stable cells [5] and on Ba/F3 stable cells [6] was ≤ 200 nM in each case.
For the compound `C=CC(=O)N1CC(c2cc3c(Nc4ccc(Cl)c(Cl)c4F)ncnc3cc2O[C@H]2CCOC2)C1` [Compound 22, (S)-1-(3-(4-((3,4-dichloro-2-fluorophenyl)amino)-7-((tetrahydrofuran-3-yl)oxy)quinazolin-6-yl)azetidin-1-yl)prop-2-en-1-one], the EC50 (in general, the concentration at which the effect is half-maximal) was > 1000 nM at Ba/F3 stable cells [1]; > 1000 nM on Ba/F3 stable cells [2]; > 1000 nM on Ba/F3 stable cells [3]; 200 to 1000 nM on Ba/F3 stable cells [4]; > 1000 nM at Ba/F3 stable cells [5]; > 1000 nM at Ba/F3 stable cells [6].
For `C=CC(=O)N1CC(c2cc3c(Nc4ccc(Cl)c(Cl)c4F)ncnc3cc2OC(F)F)C1` [Compound 23, 1-(3-(4-((3,4-dichloro-2-fluorophenyl)amino)-7-(difluoromethoxy)quinazolin-6-yl)azetidin-1-yl)prop-2-en-1-one], the half-maximal effective concentration (EC50) on Ba/F3 stable cells [1] was ≤ 200 nM; at Ba/F3 stable cells [2], ≤ 200 nM; at Ba/F3 stable cells [3], ≤ 200 nM; on Ba/F3 stable cells [4], ≤ 200 nM; at Ba/F3 stable cells [5], ≤ 200 nM; at Ba/F3 stable cells [6], 200 to 1000 nM.
Turning to `C=CC(=O)N1CC(c2cc3c(Nc4ccc(Cl)c(Cl)c4F)ncnc3cc2OC2COC2)C1` [Compound 25, 1-(3-(4-((3,4-dichloro-2-fluorophenyl)amino)-7-(oxetan-3-yloxy)quinazolin-6-yl)azetidin-1-yl)prop-2-en-1-one], the EC50 on Ba/F3 stable cells [1], at Ba/F3 stable cells [2], at Ba/F3 stable cells [3], at Ba/F3 stable cells [4], on Ba/F3 stable cells [5] and on Ba/F3 stable cells [6] was ≤ 200 nM throughout.
As for `C=CC(=O)N1CC(c2cc3c(Nc4ccc(Cl)c(Cl)c4F)ncnc3cc2OCCN(C)C)C1` [Compound 26, 1-(3-(4-((3,4-dichloro-2-fluorophenyl)amino)-7-(2-(dimethylamino)ethoxy)quinazolin-6-yl)azetidin-1-yl)prop-2-en-1-one], the EC50 is ≤ 200 nM at Ba/F3 stable cells [1]; 200 to 1000 nM at Ba/F3 stable cells [2]; 200 to 1000 nM at Ba/F3 stable cells [3]; ≤ 200 nM at Ba/F3 stable cells [4]; 200 to 1000 nM at Ba/F3 stable cells [5]; 200 to 1000 nM at Ba/F3 stable cells [6].
Consider `C=CC(=O)N1CC(c2cc3c(Nc4ccc(Cl)c(Cl)c4F)ncnc3cc2OC2CCOCC2)C1` [Compound 27, 1-(3-(4-((3,4-dichloro-2-fluorophenyl)amino)-7-((tetrahydro-2H-pyran-4-yl)oxy)quinazolin-6-yl)azetidin-1-yl)prop-2-en-1-one], for which the EC50 at Ba/F3 stable cells [1] was ≤ 200 nM; on Ba/F3 stable cells [2], 200 to 1000 nM; on Ba/F3 stable cells [3], ≤ 200 nM; on Ba/F3 stable cells [4], ≤ 200 nM; on Ba/F3 stable cells [5], 200 to 1000 nM; at Ba/F3 stable cells [6], > 1000 nM.
Turning to `C=CC(=O)N1CC(c2cc3c(Nc4ccc(Cl)c(Cl)c4F)ncnc3cc2OCCN2CCOCC2)C1` [Compound 28, 1-(3-(4-((3,4-dichloro-2-fluorophenyl)amino)-7-(2-morpholinoethoxy)quinazolin-6-yl)azetidin-1-yl)prop-2-en-1-one], the half-maximal effective concentration (EC50) on Ba/F3 stable cells [1] was ≤ 200 nM; at Ba/F3 stable cells [2], 200 to 1000 nM; on Ba/F3 stable cells [3], ≤ 200 nM; at Ba/F3 stable cells [4] it was ≤ 200 nM; at Ba/F3 stable cells [5] it was 200 to 1000 nM; on Ba/F3 stable cells [6], 200 to 1000 nM.
As for `C=CC(=O)N1CC(c2cc3c(Nc4ccc(Cl)c(Cl)c4F)ncnc3cc2O[C@@H]2CCOC2)C1` [Compound 29, (R)-1-(3-(4-((3,4-dichloro-2-fluorophenyl)amino)-7-((tetrahydrofuran-3-yl)oxy)quinazolin-6-yl)azetidin-1-yl)prop-2-en-1-one], the EC50 at Ba/F3 stable cells [1] was ≤ 200 nM; on Ba/F3 stable cells [2], 200 to 1000 nM; on Ba/F3 stable cells [3], ≤ 200 nM; at Ba/F3 stable cells [4], ≤ 200 nM; on Ba/F3 stable cells [5], ≤ 200 nM; at Ba/F3 stable cells [6], 200 to 1000 nM.
Turning to `C=CC(=O)N1CC(c2cc3c(Nc4ccc(Cl)c(Cl)c4F)ncnc3cc2OCCCN2CCOCC2)C1` [Compound 30, 1-(3-(4-((3,4-dichloro-2-fluorophenyl)amino)-7-(3-morpholinopropoxy)quinazolin-6-yl)azetidin-1-yl)prop-2-en-1-one], the EC50 at Ba/F3 stable cells [1], on Ba/F3 stable cells [2], on Ba/F3 stable cells [3], on Ba/F3 stable cells [4], at Ba/F3 stable cells [5] and on Ba/F3 stable cells [6] was ≤ 200 nM throughout.
On to `C=CC(=O)N1CC(c2cc3c(Nc4ccc(Cl)c(Cl)c4F)ncnc3cc2OCCCN2CCN(C)CC2)C1` [Compound 31, 1-(3-(4-((3,4-dichloro-2-fluorophenyl)amino)-7-(3-(4-methylpiperazin-1-yl)propoxy)quinazolin-6-yl)azetidin-1-yl)prop-2-en-1-one], for which the concentration for a half-maximal effect (EC50) is ≤ 200 nM on Ba/F3 stable cells [1]; ≤ 200 nM at Ba/F3 stable cells [2]; ≤ 200 nM on Ba/F3 stable cells [3]; ≤ 200 nM on Ba/F3 stable cells [4]; ≤ 200 nM at Ba/F3 stable cells [5]; 200 to 1000 nM at Ba/F3 stable cells [6].
On to `[2H]C([2H])([2H])Oc1cc2ncnc(Nc3ccc(Cl)c(Cl)c3F)c2cc1C1CN(C(=O)C=C)C1` [Compound 32, 1-(3-(4-((3,4-dichloro-2-fluorophenyl)amino)-7-(methoxy-d3)quinazolin-6-yl)azetidin-1-yl)prop-2-en-1-one], for which the EC50 at Ba/F3 stable cells [1], on Ba/F3 stable cells [2], on Ba/F3 stable cells [3], on Ba/F3 stable cells [4], on Ba/F3 stable cells [5] and on Ba/F3 stable cells [6] was ≤ 200 nM throughout.
As to `C=CC(=O)N1CC(c2cc3c(Nc4ccc(F)c(Cl)c4F)ncnc3cc2O[C@H]2CCOC2)C1` [Compound 33, (S)-1-(3-(4-((3-chloro-2,4-difluorophenyl)amino)-7-((tetrahydrofuran-3-yl)oxy)quinazolin-6-yl)azetidin-1-yl)prop-2-en-1-one], the EC50 at Ba/F3 stable cells [1], on Ba/F3 stable cells [2], on Ba/F3 stable cells [3], on Ba/F3 stable cells [4], at Ba/F3 stable cells [5] and on Ba/F3 stable cells [6] was ≤ 200 nM throughout.
